In ChEMBL document CHEMBL2074038 (J Pharmacol Exp Ther, 2003):

Target: ATP-dependent translocase ABCB1 (Homo sapiens, UniProt P08183)
Assay: TP_TRANSPORTER: transepithelial transport in MDR1-expressing LLC-PK1 cells
Assay type: functional, cell-based
Conditions: pig

Chain of ATP-dependent translocase ABCB1 (P08183 whole entry): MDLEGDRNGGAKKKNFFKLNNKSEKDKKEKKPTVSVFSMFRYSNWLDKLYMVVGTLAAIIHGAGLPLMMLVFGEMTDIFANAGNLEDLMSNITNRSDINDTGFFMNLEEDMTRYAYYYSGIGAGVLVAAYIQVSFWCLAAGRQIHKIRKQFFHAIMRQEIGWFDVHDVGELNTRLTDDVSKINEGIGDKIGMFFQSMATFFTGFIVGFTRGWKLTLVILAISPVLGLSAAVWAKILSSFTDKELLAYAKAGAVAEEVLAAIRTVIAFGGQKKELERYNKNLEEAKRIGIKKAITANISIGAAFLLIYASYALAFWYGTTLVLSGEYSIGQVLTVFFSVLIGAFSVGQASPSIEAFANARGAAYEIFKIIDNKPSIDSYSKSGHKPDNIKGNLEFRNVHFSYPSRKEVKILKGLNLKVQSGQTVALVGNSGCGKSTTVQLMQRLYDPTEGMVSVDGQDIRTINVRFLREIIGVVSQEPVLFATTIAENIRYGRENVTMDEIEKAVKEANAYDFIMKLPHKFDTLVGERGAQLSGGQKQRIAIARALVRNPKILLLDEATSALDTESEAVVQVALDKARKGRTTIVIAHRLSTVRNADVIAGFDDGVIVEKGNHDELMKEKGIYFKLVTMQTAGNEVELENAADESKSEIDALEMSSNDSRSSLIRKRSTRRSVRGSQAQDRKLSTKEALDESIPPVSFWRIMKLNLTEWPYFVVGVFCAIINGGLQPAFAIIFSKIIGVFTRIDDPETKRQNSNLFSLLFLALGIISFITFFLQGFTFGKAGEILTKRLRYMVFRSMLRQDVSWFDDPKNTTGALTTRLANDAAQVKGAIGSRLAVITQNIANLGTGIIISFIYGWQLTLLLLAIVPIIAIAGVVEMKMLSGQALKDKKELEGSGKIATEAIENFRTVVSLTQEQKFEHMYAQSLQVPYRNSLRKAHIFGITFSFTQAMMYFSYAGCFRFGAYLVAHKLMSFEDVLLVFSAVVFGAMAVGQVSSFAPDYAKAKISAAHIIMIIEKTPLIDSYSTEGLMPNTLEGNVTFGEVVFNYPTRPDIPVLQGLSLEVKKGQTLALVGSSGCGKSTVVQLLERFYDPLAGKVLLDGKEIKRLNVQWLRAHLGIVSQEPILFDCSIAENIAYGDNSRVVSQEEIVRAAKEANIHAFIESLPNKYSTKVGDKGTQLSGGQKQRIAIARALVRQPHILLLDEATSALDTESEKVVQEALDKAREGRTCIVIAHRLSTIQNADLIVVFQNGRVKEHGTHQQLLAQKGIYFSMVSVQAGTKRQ

Activity	Structure (SMILES)
substrate [+]	CCn1nc(Cc2ccccc2)cc1C1CCN(Cc2ccc(C3(N(C)[C@@H](C(=O)O)C(C)C)CCCC3)cc2F)CC1
substrate [+]	CC[C@]1(O)C[C@@H]2CN(CCc3c([nH]c4ccccc34)[C@@](C(=O)OC)(c3cc4c(cc3OC)N(C)[C@H]3[C@@](O)(C(=O)OC)[C@H](OC(C)=O)[C@]5(CC)C=CCN6CC[C@]43[C@@H]65)C2)C1 [VINBLASTINE]
